Marks after values point to notes of the source that are not given here.
Columns and labels:
[1] = test system: ICR mice; experiment: in vivo; conditions: female ICR mice; single-dose ip
Experimental: This experiment was to investigate the toxic effects of single-dose intraperitoneal administration on ICR mice and determine the maximum tolerated dose (MTD) of each subject. Maximum tolerated dose (MTD) refers to the dose that may not cause an animal to die, may not cause the animal to suffer weight loss exceeding 10% (compared with Day 0), or may not produce significant side effects.
The corresponding amount of test substance was taken in a 5 mL glass tube and dissolved in ethanol with a 5 mm magnetic stirrer for stirring. After dissolving completely, Cremophor EL was added with continuous stirring. The marked amount of saline was added and mixed evenly before use. The volume ratio of ethanol, Cremophor EL, and physiological saline was 5:5:90.
Varieties and lines: ICR mice; level: SPF; sex: female.
Method of administration: ip. The dose was reduced in case of animal death, till an animal survived; the dose was increased in case of no animal death; the test was ended when the animals survived normally at the given high dose. Finally, the MTD of the mice on the test substances was determined according to the test results. The animals were observed continuously for 7 days after acute administration.
During the experiment, all animals were under detailed and continuous clinical observation for […], twice a day (10:00 am, 16:00 pm) after administration. The observation included but not limited to: skin, hair, ear, nose, mouth, chest, abdomen, external genitalia, limbs and feet, respiratory and circulatory system, autonomic effects (such as salivation), nervous system (such as tremor, convulsions, stress response and abnormal behavior).
The body of animals was weighed before administration, and then weighed and recorded at the same time each day.
The observation results, animal body weight, and animal survival after one week of administration were recorded in detail every day.

[2] = Method in brief: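 Female SPF Balb/c nude mice bearing subcutaneous HCT-116 xenografts (3×10^6 cells, right hind limb), grouped at 60–150 mm^3, 6 per group; vehicle ethanol/Cremophor EL/saline 5:5:90. Body weight thrice weekly; tumours excised and weighed at sacrifice; Mean±SEM, unpaired t-test, P<0.05.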
[3] = test system: HCT-116 colon cancer xenografts; experiment: Tumor growth inhibition of HCT-116 colon cancer xenografts in tumor-bearing nude mice (tumor volume, TGI %, RTV, T/C %); assay type: in vivo, Balb/c Nude mice; conditions: G10-G16 groups, single IP 400 mg/kg
Method in brief: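 Nude mice inoculated with HCT-116 cells (about 3×10^7 cells/mL in serum-free medium). Tumor diameter measured three times weekly and volume computed as V=3/4π(D/2)^3. Activity expressed as TGI (%) and T/C (%) from relative tumor volume Vt/V0, with V0 taken at grouping and dosing start; P<0.05 significant.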

[4] = Day 1, G10-G16 groups, single IP 400 mg/kg, Mean±SEM
[5] = Day 2, G10-G16 groups, single IP 400 mg/kg, Mean±SEM
[6] = Day 4, G10-G16 groups, single IP 400 mg/kg, Mean±SEM
[7] = Day 7, G10-G16 groups, single IP 400 mg/kg, Mean±SEM
[8] = Day 9, G10-G16 groups, single IP 400 mg/kg, Mean±SEM
[9] = Day 11, G10-G16 groups, single IP 400 mg/kg, Mean±SEM
[10] = Day 14, G10-G16 groups, single IP 400 mg/kg, Mean±SEM
[11] = Day 16, G10-G16 groups, single IP 400 mg/kg, Mean±SEM
[12] = Day 18, G10-G16 groups, single IP 400 mg/kg, Mean±SEM
[13] = Day 21, G10-G16 groups, single IP 400 mg/kg, Mean±SEM
[14] = Day 23, G10-G16 groups, single IP 400 mg/kg, Mean±SEM
[15] = Day 25, G10-G16 groups, single IP 400 mg/kg, Mean±SEM
[16] = Day 28, G10-G16 groups, single IP 400 mg/kg, Mean±SEM
[17] = Day 30, G10-G16 groups, single IP 400 mg/kg, Mean±SEM

O=C(COc1nc(Cl)c(Cl)cc1Cl)OCC1OC(n2cc(-c3cn(Cc4ccccc4)nn3)c(NC(=O)OCc3ccc([N+](=O)[O-])cc3)nc2=O)C(F)(F)C1O (centres unmarked) [Compound G13]
dose that could be tolerated (maximum tolerated dose, MTD) [1]: 400 mg/kg
Weight change rate, Day 0 ([2]; Day 0, G10-G16 groups, single IP 400 mg/kg): 0.00%
Weight of mice, Day 0 ([2]; Day 0, G10-G16 groups, single IP 400 mg/kg, Mean±SEM): 20.43 ± 0.27 g
Weight change rate, Day 1 [2, 4]: −6.73 ± 0.73 %
Weight of mice, Day 1 [2, 4]: 19.05 ± 0.17 g
Weight change rate, Day 2 [2, 5]: −6.78 ± 0.95 %
Weight of mice, Day 2 [2, 5]: 19.05 ± 0.35 g
Weight change rate, Day 4 [2, 6]: −3.29 ± 1.05%
Weight of mice, Day 4 [2, 6]: 19.77 ± 0.40 g
Weight change rate, Day 7 [2, 7]: −2.67 ± 1.20%
Weight of mice, Day 7 [2, 7]: 19.90 ± 0.48 g
Weight change rate, Day 9 [2, 8]: 0.07 ± 2.05%
Weight of mice, Day 9 [2, 8]: 20.47 ± 0.64 g
Weight change rate, Day 11 [2, 9]: 0.61 ± 2.23%
Weight of mice, Day 11 [2, 9]: 20.58 ± 0.69 g
Weight change rate, Day 14 [2, 10]: 0.35 ± 2.75%
Weight of mice, Day 14 [2, 10]: 20.53 ± 0.79 g
Weight change rate, Day 16 [2, 11]: 3.83 ± 3.60%
Weight of mice, Day 16 [2, 11]: 21.25 ± 0.94 g
Weight change rate, Day 18 [2, 12]: 4.84 ± 3.19 %
Weight of mice, Day 18 [2, 12]: 21.45 ± 0.85 g
Weight change rate, Day 21 [2, 13]: 4.12 ± 3.07 %
Weight of mice, Day 21 [2, 13]: 21.30 ± 0.81 g
Day 22 Mortality ([2]; Day 22, single IP dose (mg/kg)): 0%
Weight change rate, Day 23 [2, 14]: 5.17 ± 4.24%
Weight of mice, Day 23 [2, 14]: 21.44 ± 1.05 g
Weight change rate, Day 25 [2, 15]: 9.03 ± 4.91%
Weight of mice, Day 25 [2, 15]: 22.24 ± 1.24 g
Weight change rate, Day 28 [2, 16]: 12.25 ± 3.97%
Weight of mice, Day 28 [2, 16]: 23.08 ± 0.97 g
Weight change rate, Day 30 [2, 17]: 13.32 ± 4.25%
Weight of mice, Day 30 [2, 17]: 23.30 ± 1.07 g
clinical symptoms ([2]; after single IP dose, compared with model control group): no significant differences in clinical symptoms
Day 0 (RTV) ([3]; Day 0): 1.00
Tumor volume, Day 0 ([3]; Day 0, Mean±SEM): 61.03 ± 13.76* mm^3
Day 1 (TGI %) ([3]; Day 1): 77.92%
Day 1 (RTV) ([3]; Day 1, Mean±SEM): 0.91 ± 0.12
Tumor volume, Day 1 ([3]; Day 1, Mean±SEM): 48.89 ± 5.84** mm^3
Day 2 (TGI %) ([3]; Day 2): 76.34%
Day 2 (RTV) ([3]; Day 2, Mean±SEM): 0.95 ± 0.11
Tumor volume, Day 2 ([3]; Day 2, Mean±SEM): 52.50 ± 8.43** mm^3
Day 4 (TGI %) ([3]; Day 4): 73.88%
Day 4 (RTV) ([3]; Day 4, Mean±SEM): 1.31 ± 0.07
Tumor volume, Day 4 ([3]; Day 4, Mean±SEM): 77.58 ± 16.80** mm^3
Day 7 (TGI %) ([3]; Day 7): 68.32%
Day 7 (RTV) ([3]; Day 7, Mean±SEM): 2.39 ± 0.28
Tumor volume, Day 7 ([3]; Day 7, Mean±SEM): 137.02 ± 30.02** mm^3
Day 9 (TGI %) ([3]; Day 9): 55.73%
Day 9 (RTV) ([3]; Day 9, Mean±SEM): 4.07 ± 0.37
Tumor volume, Day 9 ([3]; Day 9, Mean±SEM): 261.35 ± 79.51* mm^3
Day 11 (TGI %) ([3]; Day 11): 56.17%
Day 11 (RTV) ([3]; Day 11, Mean±SEM): 6.38 ± 0.77
Tumor volume, Day 11 ([3]; Day 11, Mean±SEM): 427.82 ± 136.59** mm^3
Day 14 (TGI %) ([3]; Day 14): 46.84%
Day 14 (RTV) ([3]; Day 14, Mean±SEM): 11.17 ± 1.45
Tumor volume, Day 14 ([3]; Day 14, Mean±SEM): 765.65 ± 247.40* mm^3
Day 16 (TGI %) ([3]; Day 16): 43.43%
Day 16 (RTV) ([3]; Day 16, Mean±SEM): 15.55 ± 1.37
Tumor volume, Day 16 ([3]; Day 16, Mean±SEM): 1024.48 ± 288.64* mm^3
Day 18 (TGI %) ([3]; Day 18): 36.04%
Day 18 (RTV) ([3]; Day 18, Mean±SEM): 19.86 ± 1.32
Tumor volume, Day 18 ([3]; Day 18, Mean±SEM): 1278.22 ± 336.74 mm^3
Day 21 (TGI %) ([3]; Day 21): 32.28%
Day 21 (RTV) ([3]; Day 21, Mean±SEM): 26.98 ± 0.99
Tumor volume, Day 21 ([3]; Day 21, Mean±SEM): 1655.72 ± 370.44 mm^3
Day 23 (TGI %) ([3]; Day 23): 39.64%
Day 23 (RTV) ([3]; Day 23, Mean±SEM): 27.42 ± 1.09
Tumor volume, Day 23 ([3]; Day 23, Mean±SEM): 1425.63 ± 355.57 mm^3
Day 25 (TGI %) ([3]; Day 25): 38.81%
Day 25 (RTV) ([3]; Day 25, Mean±SEM): 30.60 ± 1.01
Tumor volume, Day 25 ([3]; Day 25, Mean±SEM): 1580.18 ± 380.76 mm^3
Day 28 (TGI %) ([3]; Day 28): 44.77%
Day 28 (RTV) ([3]; Day 28, Mean±SEM): 35.76 ± 0.97
Tumor volume, Day 28 ([3]; Day 28, Mean±SEM): 1485.25 ± 290.76 mm^3
Day 30 (TGI %) ([3]; Day 30): 38.58%
Day 30 (RTV) ([3]; Day 30, Mean±SEM): 42.06 ± 2.09
Tumor volume, Day 30 ([3]; Day 30, Mean±SEM): 1723.43 ± 289.91 mm^3

Reference: patent US10174067B2, “Type of cytidine derivative and application thereof” (priority 2014, dated 2019)
